Experimental data: patent US20260337172A1, “AMINOPIPERAZINES WITH BROAD SPECTRUM ANTIMICROBIAL ACTIVITY” (The United States Government as represented by the …, priority 2022, published 2026)
Values after ≈ are worked out from the molar mass of the structure shown. Read-outs that look alike come from different tables or passages of the source.

Test system: C. auris
Assay: minimum inhibitory concentration, C. auris (Table 3)
Format: cell-based, Candida auris
Conditions: Candidozyma auris
Description: Table 2 and Table 3 below show the minimum inhibitory concentration values for the synthesized compounds as tested on bacterial strains.

[1] = 50% inhibition, first of two values in cell, read-out: minimum inhibitory concentration, C. auris 50% inhib.
[2] = 50% inhibition, second of two values in cell, read-out: minimum inhibitory concentration, C. auris 50% inhib.
[3] = 90% inhibition, first of two values in cell, read-out: minimum inhibitory concentration, C. auris 90% inhib.
[4] = 90% inhibition, second of two values in cell, read-out: minimum inhibitory concentration, C. auris 90% inhib.

| Compound | MIC [1] [µg/mL] | MIC [2] [µg/mL] | MIC [3] [µg/mL] | MIC [4] [µg/mL] |
| --- | --- | --- | --- | --- |
| COc1cccc(/C=N/N2CCN(C)CC2)c1O [Compound 20] | 128 (≈ 513 µM) | 128 (≈ 513 µM) | 256 (≈ 1030 µM) | 256 (≈ 1030 µM) |
| C[C@@H]1[C@H](O)[C@@H](C)/C=C/C=C/C=C/C=C/C=C/C=C/C=C/[C@H](O[C@@H]2O[C@H](C)[C@@H](O)[C@H](N)[C@@H]2O)C[C@@H]2O[C@](O)(C[C@@H](O)C[C@@H](O)[C@H](O)CC[C@@H](O)C[C@@H](O)CC(=O)O[C@H]1C)C[C@H](O)[C@H]2C(=O)O [Amphotericin B, reference compound] | 1 (≈ 1.08 µM) | 1 (≈ 1.08 µM) | 1 (≈ 1.08 µM) | 1 (≈ 1.08 µM) |
| CN1CCN(/N=C/c2ccc([N+](=O)[O-])cc2)CC1 [Compound 4] | 256 (≈ 1030 µM) | 256 (≈ 1030 µM) | > 256 | > 256 |
| COc1ccc(/C=N/N2CCN(C)CC2)c2ccccc12 [Compound 5, (E)-1-(4-methoxynaphthalen-1-yl)-N-(4-methylpiperazin-1-yl)methanimine] | 128 (≈ 452 µM) | 128 (≈ 452 µM) | 256 (≈ 903 µM) | 256 (≈ 903 µM) |
| CN1CCN(/N=C/c2ccc(Cl)c([N+](=O)[O-])c2)CC1 [Compound 3] | 256 (≈ 905 µM) | 128 (≈ 453 µM) | 256 (≈ 905 µM) | 256 (≈ 905 µM) |
| CN1CCN(/N=C/c2ccc(-c3ccccc3)cc2)CC1 [Compound 17] | 64 (≈ 229 µM) | 64 (≈ 229 µM) | 128 (≈ 458 µM) | 128 (≈ 458 µM) |
